From the supplement of paper PMC10307832

What was measured:
Assay in all cases: relative viability (nuclei count vs DMSO), 5 days (fraction); higher = more cells survive
201T = tested on: 201T
Method in brief: (§1)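 After 5 days of treatment, lung cancer cells in 1536-well plates were fixed and stained in a single step (final 0.05% Triton X-100, 1% formaldehyde, 1 ug/ml Hoechst) and their nuclei counted on 4× images. Treatment had been applied by pin tool the day after seeding as one drug alone or as a fixed anchor-drug dose with five library-drug doses (not always all listed) in √10 steps. Relative viability is the nuclei count of treated wells divided by that of vehicle wells, and values are medians of duplicate plates.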

BEN = tested on: BEN
Method in brief: as §1

COR-L 105 = tested on: COR-L 105
Method in brief: as §1

EKVX = tested on: EKVX
Method in brief: as §1

EPLC-272H = tested on: EPLC-272H
Method in brief: as §1

H3255 = tested on: H3255
Method in brief: as §1

HCC-44 = tested on: HCC-44
Method in brief: as §1

HCC-827 = tested on: HCC-827
Method in brief: as §1

LCLC-97TM1 = tested on: LCLC-97TM1
Method in brief: as §1

LOU-NH91 = tested on: LOU-NH91
Method in brief: as §1

LU99A = tested on: LU99A
Method in brief: as §1

NCI-H1437 = tested on: NCI-H1437
Method in brief: as §1

NCI-H1666 = tested on: NCI-H1666
Method in brief: as §1

NCI-H1975 = tested on: NCI-H1975
Method in brief: as §1

NCI-H2085 = tested on: NCI-H2085
Method in brief: as §1

NCI-H2087 = tested on: NCI-H2087
Method in brief: as §1

NCI-H2170 = tested on: NCI-H2170
Method in brief: as §1

NCI-H647 = tested on: NCI-H647
Method in brief: as §1

NCI-H650 = tested on: NCI-H650
Method in brief: as §1

PC-3 [JPC-3] = tested on: PC-3 [JPC-3]
Method in brief: as §1

SW 1573 = tested on: SW 1573
Method in brief: as §1

**Q.** Which results are given for `CC(=O)O[C@@]12CO[C@@H]1C[C@H](O)[C@@]1(C)C(=O)[C@H](O)C3=C(C)[C@@H](OC(=O)[C@H](O)[C@@H](NC(=O)OC(C)(C)C)c4ccccc4)C[C@@](O)([C@@H](OC(=O)c4ccccc4)[C@H]21)C3(C)C` [Docetaxel] + C[C@@H](Oc1cc(-c2cnn(C3CCNCC3)c2)cnc1N)c1c(Cl)ccc(F)c1Cl [Crizotinib] (partner 1 µM)?
**A.** relative viability (201T; first compound 0.0002 µM): 0.983; relative viability (201T; first compound 0.000632 µM): 1.03; relative viability (201T; first compound 0.002 µM): 0.908; relative viability (201T; first compound 0.006325 µM): 0.646; relative viability (201T; first compound 0.02 µM): 0.5; relative viability (BEN; first compound 0.0002 µM): 0.859; relative viability (BEN; first compound 0.000632 µM): 0.809; relative viability (BEN; first compound 0.002 µM): 0.42; relative viability (BEN; first compound 0.006325 µM): 0.222; relative viability (COR-L 105; first compound 0.0002 µM): 0.768; relative viability (COR-L 105; first compound 0.000632 µM): 0.588; relative viability (COR-L 105; first compound 0.002 µM): 0.361; relative viability (COR-L 105; first compound 0.006325 µM): 0.285; relative viability (COR-L 105; first compound 0.02 µM): 0.248; relative viability (EKVX; first compound 0.0002 µM): 0.725; relative viability (EKVX; first compound 0.000632 µM): 0.885; relative viability (EKVX; first compound 0.002 µM): 0.432; relative viability (EKVX; first compound 0.006325 µM): 0.25; relative viability (EKVX; first compound 0.02 µM): 0.145; relative viability (EPLC-272H; first compound 0.0002 µM): 0.832; relative viability (EPLC-272H; first compound 0.000632 µM): 0.547; relative viability (EPLC-272H; first compound 0.002 µM): 0.321; relative viability (EPLC-272H; first compound 0.006325 µM): 0.0867; relative viability (EPLC-272H; first compound 0.02 µM): 0.1; relative viability (H3255; first compound 0.0002 µM): 0.654; relative viability (H3255; first compound 0.000632 µM): 0.757; relative viability (H3255; first compound 0.002 µM): 0.376; relative viability (H3255; first compound 0.006325 µM): 0.267; relative viability (H3255; first compound 0.02 µM): 0.252; relative viability (HCC-44; first compound 0.0002 µM): 0.805; relative viability (HCC-44; first compound 0.000632 µM): 0.536; relative viability (HCC-44; first compound 0.002 µM): 0.483; relative viability (HCC-44; first compound 0.006325 µM): 0.195; relative viability (HCC-44; first compound 0.02 µM): 0.12; relative viability (HCC-827; first compound 0.0002 µM): 0.943; relative viability (HCC-827; first compound 0.000632 µM): 0.91; relative viability (HCC-827; first compound 0.002 µM): 0.68; relative viability (HCC-827; first compound 0.006325 µM): 0.416; relative viability (HCC-827; first compound 0.02 µM): 0.342; relative viability (LCLC-97TM1; first compound 0.000632 µM): 0.178; relative viability (LCLC-97TM1; first compound 0.002 µM): 0.115; relative viability (LCLC-97TM1; first compound 0.006325 µM): 0.139; relative viability (LCLC-97TM1; first compound 0.02 µM): 0.12; relative viability (LOU-NH91; first compound 0.0002 µM): 0.734; relative viability (LOU-NH91; first compound 0.000632 µM): 0.664; relative viability (LOU-NH91; first compound 0.002 µM): 0.508; relative viability (LOU-NH91; first compound 0.006325 µM): 0.373; relative viability (LOU-NH91; first compound 0.02 µM): 0.362; relative viability (LU99A; first compound 0.0002 µM): 0.522; relative viability (LU99A; first compound 0.000632 µM): 0.401; relative viability (LU99A; first compound 0.002 µM): 0.367; relative viability (LU99A; first compound 0.006325 µM): 0.278; relative viability (LU99A; first compound 0.02 µM): 0.196; relative viability (NCI-H1437; first compound 0.0002 µM): 0.901; relative viability (NCI-H1437; first compound 0.000632 µM): 0.878; relative viability (NCI-H1437; first compound 0.002 µM): 0.197; relative viability (NCI-H1437; first compound 0.006325 µM): 0.113; relative viability (NCI-H1437; first compound 0.02 µM): 0.11; relative viability (NCI-H1666; first compound 0.0002 µM): 0.67; relative viability (NCI-H1666; first compound 0.000632 µM): 0.508; relative viability (NCI-H1666; first compound 0.002 µM): 0.337; relative viability (NCI-H1666; first compound 0.006325 µM): 0.259; relative viability (NCI-H1666; first compound 0.02 µM): 0.24; relative viability (NCI-H1975; first compound 0.0002 µM): 0.861; relative viability (NCI-H1975; first compound 0.000632 µM): 0.483; relative viability (NCI-H1975; first compound 0.002 µM): 0.23; relative viability (NCI-H1975; first compound 0.006325 µM): 0.192; relative viability (NCI-H1975; first compound 0.02 µM): 0.142; relative viability (NCI-H2085; first compound 0.0002 µM): 0.63; relative viability (NCI-H2085; first compound 0.000632 µM): 0.706; relative viability (NCI-H2085; first compound 0.002 µM): 0.737; relative viability (NCI-H2085; first compound 0.006325 µM): 0.415; relative viability (NCI-H2085; first compound 0.02 µM): 0.317; relative viability (NCI-H2087; first compound 0.0002 µM): 0.854; relative viability (NCI-H2087; first compound 0.000632 µM): 0.684; relative viability (NCI-H2087; first compound 0.002 µM): 0.334; relative viability (NCI-H2087; first compound 0.006325 µM): 0.182; relative viability (NCI-H2087; first compound 0.02 µM): 0.156; relative viability (NCI-H2170; first compound 0.0002 µM): 1.04; relative viability (NCI-H2170; first compound 0.000632 µM): 0.999; relative viability (NCI-H2170; first compound 0.002 µM): 0.671; relative viability (NCI-H2170; first compound 0.006325 µM): 0.304; relative viability (NCI-H2170; first compound 0.02 µM): 0.199; relative viability (NCI-H647; first compound 0.0002 µM): 0.769; relative viability (NCI-H647; first compound 0.000632 µM): 0.319; relative viability (NCI-H647; first compound 0.002 µM): 0.172; relative viability (NCI-H647; first compound 0.006325 µM): 0.117; relative viability (NCI-H647; first compound 0.02 µM): 0.1; relative viability (NCI-H650; first compound 0.0002 µM): 0.504; relative viability (NCI-H650; first compound 0.000632 µM): 0.356; relative viability (NCI-H650; first compound 0.002 µM): 0.253; relative viability (NCI-H650; first compound 0.006325 µM): 0.208; relative viability (NCI-H650; first compound 0.02 µM): 0.204; relative viability (PC-3 [JPC-3]; first compound 0.0002 µM): 0.966; relative viability (PC-3 [JPC-3]; first compound 0.000632 µM): 0.918; relative viability (PC-3 [JPC-3]; first compound 0.002 µM): 0.635; relative viability (PC-3 [JPC-3]; first compound 0.006325 µM): 0.223; relative viability (PC-3 [JPC-3]; first compound 0.02 µM): 0.172; relative viability (SW 1573; first compound 0.0002 µM): 0.737; relative viability (SW 1573; first compound 0.000632 µM): 0.307; relative viability (SW 1573; first compound 0.006325 µM): 0.218; relative viability (SW 1573; first compound 0.02 µM): 0.203
